Experimental data from ChEMBL document CHEMBL1122903, “Synthesis, in vitro [3H]prazosin displacement, and in vivo activity of 3-aryl-4,5,6,7-tetrahydropyrazolo[4,3-c]pyridines, a new class of antihypertensive agents” (J Med Chem, 1985).
“And” between values parts separate entries of the source, which are not always exact repeats. Equal entries are not always repeated.

Columns and labels:
Rattus norvegicus = assay: Antihypertensive activity on spontaneously hypertensive rats, when administered orally at a dose 15 mg/kg; format: functional; conditions: route oral
[1] = biological target: T1, Adrenergic receptor alpha-1 (Rattus norvegicus, UniProt P15823+P23944+P43140); assay: Ability to displace [3H]prazosin from postsynaptic alpha-1 adrenergic receptor of rat in vitro.; format: protein assay
T1 sequence (P15823 whole entry): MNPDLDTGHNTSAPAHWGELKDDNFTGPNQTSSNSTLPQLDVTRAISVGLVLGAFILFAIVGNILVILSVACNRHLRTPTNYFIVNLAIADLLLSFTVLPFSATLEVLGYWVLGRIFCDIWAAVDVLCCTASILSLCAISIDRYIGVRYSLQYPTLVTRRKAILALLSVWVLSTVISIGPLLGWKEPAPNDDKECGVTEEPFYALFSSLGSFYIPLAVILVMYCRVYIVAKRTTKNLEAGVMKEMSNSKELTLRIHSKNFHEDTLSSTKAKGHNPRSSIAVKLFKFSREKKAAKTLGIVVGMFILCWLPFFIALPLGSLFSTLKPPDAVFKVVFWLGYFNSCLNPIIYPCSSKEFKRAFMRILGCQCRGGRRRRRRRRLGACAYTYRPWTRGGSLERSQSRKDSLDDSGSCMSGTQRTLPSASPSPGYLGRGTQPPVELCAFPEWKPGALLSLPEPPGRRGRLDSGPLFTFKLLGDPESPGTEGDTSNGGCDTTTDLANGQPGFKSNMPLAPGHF
T1 sequence (P23944 whole entry): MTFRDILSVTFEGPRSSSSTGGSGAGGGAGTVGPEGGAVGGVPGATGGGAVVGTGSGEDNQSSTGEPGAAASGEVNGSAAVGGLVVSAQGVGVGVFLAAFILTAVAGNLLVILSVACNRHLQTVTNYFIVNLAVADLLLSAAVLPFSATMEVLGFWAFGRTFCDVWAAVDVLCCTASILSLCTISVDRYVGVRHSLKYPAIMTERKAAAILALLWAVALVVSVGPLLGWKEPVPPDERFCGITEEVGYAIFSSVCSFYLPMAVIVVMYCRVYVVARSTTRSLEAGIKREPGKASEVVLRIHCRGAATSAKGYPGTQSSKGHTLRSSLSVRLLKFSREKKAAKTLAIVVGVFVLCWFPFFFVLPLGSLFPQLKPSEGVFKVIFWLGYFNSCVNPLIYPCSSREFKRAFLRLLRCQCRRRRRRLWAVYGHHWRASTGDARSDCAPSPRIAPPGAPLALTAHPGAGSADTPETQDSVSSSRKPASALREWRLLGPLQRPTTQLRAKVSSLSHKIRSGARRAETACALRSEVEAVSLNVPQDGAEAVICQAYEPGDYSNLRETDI
T1 sequence (P43140 whole entry): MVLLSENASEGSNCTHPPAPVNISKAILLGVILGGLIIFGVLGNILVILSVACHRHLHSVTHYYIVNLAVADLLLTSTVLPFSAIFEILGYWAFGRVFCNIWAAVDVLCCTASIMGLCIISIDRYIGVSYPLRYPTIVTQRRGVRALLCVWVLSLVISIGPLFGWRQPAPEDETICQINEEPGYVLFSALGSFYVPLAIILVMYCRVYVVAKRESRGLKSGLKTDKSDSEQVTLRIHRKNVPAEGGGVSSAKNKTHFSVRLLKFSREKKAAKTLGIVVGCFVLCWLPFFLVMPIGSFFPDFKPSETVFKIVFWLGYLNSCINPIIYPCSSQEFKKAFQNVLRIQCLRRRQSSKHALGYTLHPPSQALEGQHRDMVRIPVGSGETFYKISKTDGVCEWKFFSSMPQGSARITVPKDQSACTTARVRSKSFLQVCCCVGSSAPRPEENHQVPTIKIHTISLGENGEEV

Canis familiaris [2] = assay: Peak effect after 2-4 hours systolic blood pressure after 2 day of oral administration in renal hypertensive dogs at dose 0.3 mg/kg; format: functional, Canis lupus familiaris, Artery
Canis familiaris [3] = assay: Systolic blood pressure after 6 hr of oral administration in renal hypertensive dogs at dose 0.1 mg/kg; format: functional, Canis lupus familiaris
Canis familiaris [4] = assay: Heart rate after 4 hours of oral administration in renal hypertensive dogs at dose 0.3 mg/kg; format: functional, Canis lupus familiaris
Canis familiaris [5] = assay: Systolic blood pressure after 0 hours of oral administration in renal hypertensive dogs at dose 0.3 mg/kg; format: functional, Canis lupus familiaris
Canis familiaris [6] = assay: Heart rate after 0 hours of oral administration in renal hypertensive dogs at dose 0.3 mg/kg; format: functional, Canis lupus familiaris
Canis familiaris [7] = assay: Systolic blood pressure after 8 hr of oral administration in renal hypertensive dogs at dose 0.1 mg/kg; format: functional, Canis lupus familiaris
Canis familiaris [8] = assay: Systolic blood pressure after 6 hr of oral administration in renal hypertensive dogs at dose 0.5 mg/kg; format: functional, Canis lupus familiaris
Canis familiaris [9] = assay: Peak effect after 2-4 hours systolic blood pressure after 7 days of oral administration in renal hypertensive dogs at dose 0.3 mg/kg; format: functional, Canis lupus familiaris, Artery
Canis familiaris [10] = assay: Systolic blood pressure after 2 hr of oral administration in renal hypertensive dogs at dose 0.5 mg/kg; format: functional, Canis lupus familiaris
Canis familiaris [11] = assay: Heart rate after 8 hours of oral administration in renal hypertensive dogs at dose 0.5 mg/kg; format: functional, Canis lupus familiaris
Canis familiaris [12] = assay: Heart rate after 2 hours of oral administration in renal hypertensive dogs at dose 0.3 mg/kg; format: functional, Canis lupus familiaris
Canis familiaris [13] = assay: Heart rate after 4 hours of oral administration in renal hypertensive dogs at dose 0.1 mg/kg; format: functional, Canis lupus familiaris
Canis familiaris [14] = assay: Peak effect after 2-4 hours systolic blood pressure after 3 days of oral administration in renal hypertensive dogs at dose 0.3 mg/kg; format: functional, Canis lupus familiaris, Artery
Canis familiaris [15] = assay: Systolic blood pressure after 2 hours of oral administration in renal hypertensive dogs at dose 0.1 mg/kg; format: functional, Canis lupus familiaris
Canis familiaris [16] = assay: Systolic blood pressure after 4 hr of oral administration in renal hypertensive dogs at dose 0.1 mg/kg; format: functional, Canis lupus familiaris
Canis familiaris [17] = assay: Heart rate after 0 hours of oral administration in renal hypertensive dogs at dose 0.1 mg/kg; format: functional, Canis lupus familiaris
Canis familiaris [18] = assay: Systolic blood pressure after 0 hours of oral administration in renal hypertensive dogs at dose 0.5 mg/kg; format: functional, Canis lupus familiaris
Canis familiaris [19] = assay: Heart rate after 4 hours of oral administration in renal hypertensive dogs at dose 0.5 mg/kg; format: functional, Canis lupus familiaris
Canis familiaris [20] = assay: Systolic blood pressure after 2 hours of oral administration in renal hypertensive dogs at dose 0.3 mg/kg; format: functional, Canis lupus familiaris
Canis familiaris [21] = assay: Heart rate after 8 hours of oral administration in renal hypertensive dogs at dose 0.3 mg/kg; format: functional, Canis lupus familiaris
Canis familiaris [22] = assay: Systolic blood pressure after 0 hours of oral administration in renal hypertensive dogs at dose 0.1 mg/kg; format: functional, Canis lupus familiaris
Canis familiaris [23] = assay: Systolic blood pressure after 8 hr of oral administration in renal hypertensive dogs at dose 0.3 mg/kg; format: functional, Canis lupus familiaris
Canis familiaris [24] = assay: Heart rate after 2 hours of oral administration in renal hypertensive dogs at dose 0.1 mg/kg; format: functional, Canis lupus familiaris
Canis familiaris [25] = assay: Systolic blood pressure after 8 hr of oral administration in renal hypertensive dogs at dose 0.5 mg/kg; format: functional, Canis lupus familiaris
Canis familiaris [26] = assay: Systolic blood pressure after 4 hr of oral administration in renal hypertensive dogs at dose 0.3 mg/kg; format: functional, Canis lupus familiaris
Canis familiaris [27] = assay: Heart rate after 6 hours of oral administration in renal hypertensive dogs at dose 0.3 mg/kg; format: functional, Canis lupus familiaris
Canis familiaris [28] = assay: Heart rate after 8 hours of oral administration in renal hypertensive dogs at dose 0.1 mg/kg; format: functional, Canis lupus familiaris
Canis familiaris [29] = assay: Heart rate after 6 hours of oral administration in renal hypertensive dogs at dose 0.1 mg/kg; format: functional, Canis lupus familiaris
Canis familiaris [30] = assay: Heart rate after 0 hours of oral administration in renal hypertensive dogs at dose 0.5 mg/kg; format: functional, Canis lupus familiaris
Canis familiaris [31] = assay: Systolic blood pressure after 6 hr of oral administration in renal hypertensive dogs at dose 0.3 mg/kg; format: functional, Canis lupus familiaris
Canis familiaris [32] = assay: Heart rate after 6 hours of oral administration in renal hypertensive dogs at dose 0.5 mg/kg; format: functional, Canis lupus familiaris
Canis familiaris [33] = assay: Systolic blood pressure after 4 hr of oral administration in renal hypertensive dogs at dose 0.5 mg/kg; format: functional, Canis lupus familiaris
Canis familiaris [34] = assay: Heart rate after 2 hours of oral administration in renal hypertensive dogs at dose 0.5 mg/kg; format: functional, Canis lupus familiaris
Canis familiaris [35] = assay: Peak effect after 2-4 hours systolic blood pressure after 1 days of oral administration in renal hypertensive dogs at dose 0.3 mg/kg; format: functional, Canis lupus familiaris, Artery

**Q.** For `Cl.Clc1ccc(-c2[nH]nc3c2CNCC3)cc1`, which Delta p (Rattus norvegicus) is on record?
**A.** 0%

**Q.** What about the Ki [1] of the same molecule?
**A.** 0.145 µM

**Q.** How did the Blood pressure (Canis familiaris [2]) turn out when `COc1cc2nc(N3CCN(C(=O)c4ccco4)CC3)nc(N)c2cc1OC` [PRAZOSIN] was run?
**A.** 100% and 92%

**Q.** And the Blood pressure (Canis familiaris [3])?
**A.** 193 mmHg

**Q.** What about the Heart rate (Canis familiaris [4]) of the same molecule?
**A.** 100%

**Q.** What about the Blood pressure (Canis familiaris [5]) of the same molecule?
**A.** 202 mmHg

**Q.** What about the Heart rate (Canis familiaris [6]) of the same molecule?
**A.** 110 beats min-1

**Q.** What about the Blood pressure (Canis familiaris [7]) of the same molecule?
**A.** 196 mmHg

**Q.** What about the Blood pressure (Canis familiaris [8]) of the same molecule?
**A.** 125 mmHg

**Q.** What about the Blood pressure (Canis familiaris [9]) of the same molecule?
**A.** 100%

**Q.** And the Blood pressure (Canis familiaris [10])?
**A.** 135 mmHg

**Q.** And the Heart rate (Canis familiaris [11])?
**A.** 82 beats min-1

**Q.** What about the Heart rate (Canis familiaris [12]) of the same molecule?
**A.** 114%

**Q.** What about the Heart rate (Canis familiaris [13]) of the same molecule?
**A.** 94%

**Q.** What about the Blood pressure (Canis familiaris [14]) of the same molecule?
**A.** 96%

**Q.** And the Blood pressure (Canis familiaris [15])?
**A.** 186 mmHg

**Q.** And the Blood pressure (Canis familiaris [16])?
**A.** 180 mmHg

**Q.** What about the Heart rate (Canis familiaris [17]) of the same molecule?
**A.** 104 beats min-1

**Q.** And the Blood pressure (Canis familiaris [18])?
**A.** 190 mmHg

**Q.** And the Heart rate (Canis familiaris [19])?
**A.** 82%

**Q.** What about the Blood pressure (Canis familiaris [20]) of the same molecule?
**A.** 182 mmHg

**Q.** What about the Heart rate (Canis familiaris [21]) of the same molecule?
**A.** 100%

**Q.** What about the Blood pressure (Canis familiaris [22]) of the same molecule?
**A.** 205 mmHg

**Q.** And the Blood pressure (Canis familiaris [23])?
**A.** 180 mmHg

**Q.** And the Heart rate (Canis familiaris [24])?
**A.** 92%

**Q.** What about the Blood pressure (Canis familiaris [25]) of the same molecule?
**A.** 150 mmHg

**Q.** What about the Blood pressure (Canis familiaris [26]) of the same molecule?
**A.** 160 mmHg

**Q.** And the Heart rate (Canis familiaris [27])?
**A.** 90%

**Q.** And the Heart rate (Canis familiaris [28])?
**A.** 106%

**Q.** What about the Heart rate (Canis familiaris [29]) of the same molecule?
**A.** 96%

**Q.** And the Heart rate (Canis familiaris [30])?
**A.** 86 beats min-1

**Q.** And the Blood pressure (Canis familiaris [31])?
**A.** 165 mmHg

**Q.** And the Heart rate (Canis familiaris [32])?
**A.** 78 beats min-1

**Q.** What about the Blood pressure (Canis familiaris [33]) of the same molecule?
**A.** 125 mmHg

**Q.** What about the Heart rate (Canis familiaris [34]) of the same molecule?
**A.** 94 beats min-1

**Q.** And the Blood pressure (Canis familiaris [35])?
**A.** 96%
